Drawing on publication PMC12428554, “Anti-HIV and Antimicrobial Activity of 7-Hydrazino-8-hydroxyquinoline-Based Aromatic Hydrazones” (International Journal of Molecular Sciences, 2025), this text covers solubility and CC50 for 6 compounds.

In brackets after ≈: the same amount, converted by molar mass.

A short description of the first data set: Water solubility and stability of hydrazones and alginate microgels. The format is physicochemical. Particulars: preliminary studies. The method, then: The expected mass loading of microgels was 33% (5.0 mg of alginate + 2.5 mg of a sample). A solution of sodium alginate was prepared at a concentration of 3.0 mg/mL. 1.700 mL of sodium alginate solution and 3.283 mL of distilled water were added to the beaker and an equimolar copper sulfate solution (17.0 μL) was added dropwise and stirred for 30 min. Then, concentrated hydrochloric acid was dissolved in 250 μL of the polymer solution for 20 min while heating to 50 °C until the solid residue was completely dissolved. The resulting solution of I was added dropwise to the Cu^2+–alginate microgel solution and stirred for 24 h; then, the acid was neutralized with a concentrated NaOH aq. solution. The resulting solutions were purified using flow dialysis. Microgels with substances were lyophilized until a fully dry pinkish powder was obtained.
On to `Oc1c(N/N=C/c2ccccc2)ccc2cccnc12` [Compound I, 7-(2-Benzylidenohydrazinyl)-8-hydroxyquinoline], for which the solubility (commonly how much of the substance goes into solution per volume) is around 2300 µg/mL (≈ 8.74 mM).

The nature of a further data set: MTT cytotoxicity assay. Format: cell-based. The settings on record: human, Huh-7.5 cells. The method, then: Huh7.5 cells were grown in the DMEM/F12 (2:1) medium supplemented with 10% FBS (BioSera, Cholet, France), 2 mM L-glutamine, 100 U/mL penicillin, and 100 µg/mL streptomycin in the presence of 5% CO2 at 37 °C. Cells were re-seeded every three days at a ratio of 1:3 or 1:5. Stock solutions were diluted in DMSO (BioReagent of molecular biology grade, Sigma, St. Louis, MO, USA), and the final DMSO concentration was 1%. After 24 h (30–40% monolayer), the solutions of the studied compounds diluted at different concentrations were introduced to the culture medium. After incubation at 37 °C in 5% CO2 for 48 h, a freshly prepared solution of thiazolyl blue tetrazolium bromide at a final concentration of 0.4 mg/mL was added to each well of the plate. Incubation was performed at +37 °C for 2 h. The medium containing unreacted MTT was removed via aspiration. The formed formazan dye was dissolved in 100 µL of isopropanol added to each well of the plate. The result of the analysis was evaluated using a Tecan Spark multimode microplate reader (Tecan Group Ltd., Männedorf, Switzerland) via absorbance at 544 nm.
Background: Formazan colour is commonly taken as a measure of viable cells.
On to `Oc1c(N/N=C/c2ccccc2)ccc2cccnc12` [Compound I, 7-(2-Benzylidenohydrazinyl)-8-hydroxyquinoline], for which the 50% cytotoxic concentration (CC50) – broadly, the concentration at which the toxic effect on the cells reaches its halfway point – at 48 h turned out to be 50.5 ± 2.5 µM.

The compound `O=[N+]([O-])c1ccc(/C=N/Nc2ccc3cccnc3c2O)cc1` [II, 7-(4-Nitrobenzylidenohydrazinyl)-8-hydroxyquinoline] yielded a CC50 at 48 h of 123 ± 13.2 µM.

Take `O=[N+]([O-])c1cccc(/C=N/Nc2ccc3cccnc3c2O)c1` [III, 7-(3-Nitrobenzylidenohydrazinyl)-8-hydroxyquinoline]: half-maximal cytotoxicity (CC50 at 48 h) was put at 38 ± 9.1 µM.

Take `COc1ccc(/C=N/Nc2ccc3cccnc3c2O)cc1` [IV, 7-(4-Methoxybenzylidenohydrazinyl)-8-hydroxyquinoline]: half-maximal cytotoxicity (CC50 at 48 h) was put at 47 ± 3.2 µM.

On to `Oc1c(N/N=C/c2ccc(Br)c(Br)c2)ccc2cccnc12` [V, 7-(3,4-Dibromobenzylidenohydrazinyl)-8-hydroxyquinoline], for which half-maximal cytotoxicity (CC50 at 48 h) was put at 120 ± 7.5 µM.

The compound `Oc1c(N/N=C/c2ccc(F)cc2)ccc2cccnc12` [VI, 7-(4-Fluorobenzylidenohydrazinyl)-8-hydroxyquinoline] showed a CC50 at 48 h of 45.5 ± 3.6 µM.
